The molecules below were run on human liver microsomes, metabolic stability half-life (assay: NCATS Human Liver Microsomal (HLM) Stability Profiling). Settings: higher = more stable; screened at 1 µM (by protocol).
Text: Assay submitter (PI): Dr. Pranav Shah
NIH Center for Advancing Translational Sciences
Pharmacokinetic issues were the leading cause of drug attrition, accounting for approximately 40% of all cases before the turn of the century. To this end, several high-throughput in vitro assays like microsomal stability have been developed to evaluate the pharmacokinetic profiles of compounds in early stages of drug discovery. At NCATS, a single-point rat liver microsomal (RLM) stability assay is used as a Tier I assay, while human liver microsomal (HLM) stability is employed as a Tier II assay. While it is beneficial to have compound libraries screened for HLM stability, the increasing magnitude of hits routinely generated, and the time- and re-source-intensive nature of the assay makes it important to find alternatives. One strategy is to rely on in silico models that have been developed using data generated from these assays. Herein, we describe the development of an HLM stability prediction model using our in-house dataset of ~7,000 compounds, employing both traditional and advanced machine learning methods. Additionally, the strong correlation between our RLM and HLM data was further reinforced by the fact that our HLM model performance improved after adding RLM stability predictions as an input descriptor. […] The best model along with a subset of our dataset has been made publicly accessible on the NCATS@ADME website for the benefit of the greater drug discovery community.
Microsomal Stability Assay
The substrate depletion method, also called the in vitro t1/2 method was used to analyze test compounds. Incubation and liquid handling were carried out using a previously described method (Shah et al., 2016). Briefly, each reaction mixture (110 µL) consisted of a test article (1 µM), human liver microsomes (0.5 mg/mL), and NADPH regenerating system in phosphate buffer at pH 7.4. Samples were incubated in 384-well plates at 37 degrees C for 0, 5, 10, 15, 30 and 60 min. At each time point, 10 µL of the incubation mixture was aspirated into another 384-well plate which contained cold acetonitrile (ACN) with internal standard (albendazole). All plates were centrifuged at 3000 rpm for 20 min at 4 degrees C, and the supernatants were transferred to a 384-well injection plate. Sample quantification and analysis was performed using a previously described method (Shah et al., 2016, Siramshetty et al., 2020).
1: Shah, P. et al. An Automated High-Throughput Metabolic Stability Assay Using an Integrated High-Resolution Accurate Mass Method and Automated Data Analysis Software. Drug Metab Dispos 44, 1653-1661 (2016).
2: Siramshetty et al. Retrospective assessment of rat liver microsomal stability at NCATS: data and QSAR models. Sci Rep 26;10(1):20713 (2020).

Row | SMILES | half-life [min]
1 | CCOc1ccc(-n2c([C@@H](C)N(Cc3cccnc3)C(=O)Cc3ccc(OC(F)(F)F)cc3)nc3ncccc3c2=O)cc1 | 8.23
2 | Cc1cccc(NC(=O)Nc2cccs2)c1C | 10.2
3 | CC(=O)c1ccc(C(=O)N(Cc2cccnc2)c2nc3c(C)c(C)ccc3s2)cc1 | 6.25
4 | O=C(Nc1ncc(-c2cc(C(F)F)nn2-c2c(Cl)cccc2Cl)s1)C1CC1 | > 120
5 | CC1=C2[C@H]3OC(=O)[C@@H](C)[C@@H]3CC[C@@]2(C)C=CC1=O | > 120
6 | CC(C)c1ccc2oc3nc(N)c(C(=O)O)cc3c(=O)c2c1 | > 120
7 | N#Cc1c[nH]c2c(C(=O)N3CCN(CCc4ccc(F)cc4)CC3)cccc12 | 29.8
8 | CCN(CC)C(=O)C(c1ccccc1)N1CCN(c2ccc(NC(=O)c3ccccc3-c3cccnc3)cc2F)CC1 (stereo not given) | 4.93
9 | CCCOC(C(=O)OC1CCN(C)CC1)(c1ccccc1)c1ccccc1 | 11.3
10 | Cc1cc2c(cc1S(N)(=O)=O)S(=O)(=O)CCC2 | > 120
11 | CCC(=C(c1ccccc1)c1ccc(OCCN(C)C)cc1)c1ccccc1 | 94.5
12 | CNC(=O)O[C@H]1COc2ccc(N3CCN(C4COC4)CC3)cc2[C@@H]1NC(=O)c1ccc(F)cc1 | > 120
13 | CCOP(=S)(OCC)O/N=C(\C#N)c1ccccc1 | 8.67
14 | CCOC(=O)c1ccc(OCCN2C[C@H](O)[C@@H](O)[C@H](O)[C@H]2CO)cc1 | > 120
15 | CCOC(=O)C1(c2ccccc2)CCN(CCc2ccc(N)cc2)CC1 | 86.5
16 | O=C(Nc1cccc(-c2nc3cc(Cl)ccc3o2)c1)c1ccccc1 | 5.41
17 | CCn1cc(C(=O)O)c(=O)c2cc(F)c(N3CCN[C@@H](C)C3)c(F)c21 | 87.7
18 | C1Cc2[nH]nc(-c3nn[nH]n3)c2C1 | > 120
19 | C=CCN1CC[C@]23c4c5ccc(O)c4O[C@H]2C(=O)CC[C@@]3(O)[C@H]1C5 | > 120
20 | CC1=C(c2ccc(NC(=O)c3c(F)cccc3F)cc2)CN(c2nccs2)CC1 | 38.9
21 | Cc1nc2c3ccccc3nc(NNC(=O)CCC(=O)N3CCN(c4cccc(Cl)c4)CC3)n2n1 | 10.9
22 | O=c1cc(-c2ccc(O)cc2)oc2cc(O)cc(O)c12 | 18.8

Row | SMILES | half-life [min]
23 | O=C(c1ccccn1)N(Cc1cccs1)C1(C(=O)NC2CCCCC2)CCCCC1 | 1.6
24 | NC(=O)c1c(OCc2c(F)cc(Br)cc2F)nsc1NC(=O)NCCCCN1CCCC1 | > 120
25 | CCCCC(=O)O[C@]1(C(=O)CO)[C@@H](C)C[C@H]2[C@@H]3CCC4=CC(=O)C=C[C@]4(C)[C@@]3(F)[C@@H](O)C[C@@]21C | 4.35
26 | COc1ccc(C2Nc3ccccc3C(=O)N2Cc2ccco2)cc1COc1ccc(NC(C)=O)cc1 (stereo not given) | 2.15
27 | Cc1ccc(C2=Nc3ccccc3N(CC(=O)Nc3ccccc3F)C(=O)C2)cc1C | 6.23
28 | CN1CCN(C(=O)c2ccc3nccn3c2)CC1 | > 120
29 | OCc1ccccn1 | > 120
30 | CCN(Cc1ccc(Cl)nc1)/C(=C/[N+](=O)[O-])NC | > 120
31 | CCCn1cnc2c1c(=O)n(CCCCC(C)=O)c(=O)n2C | > 120
32 | Cc1cnc(Nc2cccc(CN3CCOCC3)c2)nc1Nc1cccc(S(=O)(=O)NC(C)(C)C)c1 | 19.5
33 | CC(C)(N)c1ccc(-c2nc3ccccc3nc2-c2ccccc2)cc1 | > 120
34 | COc1ccc(-c2nc3ccccc3c(=O)n2Cc2ccco2)cc1COc1ccc(NC(C)=O)cc1 | 1.85
35 | CCCCCn1cc(C(=O)Oc2cccc3cccnc23)c2ccccc21 | 4.97
36 | COc1ccccc1N1CCN(c2csc3ccc(Cl)cc3c2=O)CC1 | 15.7
37 | O=C(O)Cc1sc(-c2ccccc2)nc1-c1ccc(Cl)cc1 | 2.82
38 | Cc1ccc([S+](=O)([O-])NC2CCC(C)(C)CC2)cc1 | 4.82
39 | CCOc1cccc(NC(=O)c2ccc(N3CCCC3)c(C(F)(F)F)c2)c1 | 23
40 | COc1ccc(C(CN(C)C)C2(O)CCCCC2)cc1 (stereo not given) | > 120
41 | Cc1noc(-c2ccc(-c3ccc(CC(=O)O)cc3)cc2)c1NC(=O)O[C@H](C)c1ccccc1Cl | 29.7
42 | CCN1C(=O)c2ccccc2C1Nc1ccc(OCCN2CCCCC2)cc1 (stereo not given) | 105
43 | COc1ccc(-c2ccn(CC[C@](C)(C(=O)NO)S(C)(=O)=O)c(=O)c2)c(F)c1 | > 120
44 | c1ccc(N2CCN(CCc3nn[nH]n3)CC2)cc1 | > 120

Row | SMILES | half-life [min]
45 | CC[C@@H]([C@H](C)O)n1ncn(-c2ccc(N3CCN(c4ccc(OC[C@@H]5CO[C@@](Cn6cncn6)(c6ccc(F)cc6F)C5)cc4)CC3)cc2)c1=O | > 120
46 | Cc1nc2c(C(F)(F)F)cccc2nc1-c1ccc(-c2cccc(S(C)(=O)=O)c2)cc1 | > 120
47 | COc1ccc(Cn2c(SCC(=O)N3CCN(c4ccc(F)cc4)CC3)nc3ccccc32)cc1 | 2.2
48 | CN1C(C(=O)Nc2ccccn2)=C(O)c2sccc2S1(=O)=O | > 120
49 | Cc1cccc(C)c1NC(=O)CN1CCCC1 | > 120
50 | Cc1cccc(C)c1NC(=O)c1ccccc1C(=O)O | > 120
51 | CCCCS(=O)(=O)N[C@@H](Cc1ccc(OCCCCC2CCNCC2)cc1)C(=O)O | > 120
52 | COc1cccc2c1C(=O)c1c(O)c3c(c(O)c1C2=O)C[C@@](O)(C(=O)CO)C[C@@H]3O[C@H]1C[C@H](N)[C@H](O[C@@H]2CCCCO2)[C@H](C)O1 | > 120
53 | CC(C)(CNC(=O)c1cccc(-c2noc(C(F)(F)F)n2)c1)c1coc(-c2ccccc2)n1 | 33.1
54 | O=C(Nc1ncc([N+](=O)[O-])s1)c1cccs1 | 29
55 | O=C(OC1C[C@@H]2CC3C[C@H](C1)N2CC3=O)c1c[nH]c2ccccc12 (stereo not given in full) | 5.19
56 | CC(CN(C)C)CN1C2=C(CCCC2)SC2CCCCC21 (stereo not given) | 14.3
57 | O=C(O)Cn1nnc(-c2cc(N3CCC(Oc4cc(F)ccc4Br)CC3)no2)n1 | > 120
58 | O=C1CC[C@H](C(=O)N2CCCCC2)N1 | > 120
59 | COc1cc(C(c2c(C)[nH][nH]c2=O)c2c(C)[nH][nH]c2=O)ccc1OC(=O)c1ccccc1F | 1.83
60 | COc1cc(Nc2ncc3c(n2)-c2ccc(Cl)cc2C(c2c(F)cccc2OC)=NC3)ccc1C(=O)O | > 120
61 | Cn1ncc(Cl)c1-c1cc(C(=O)N[C@H](CN)Cc2ccc(F)c(F)c2)sc1Cl | 109
62 | Fc1ccc(-c2nc(C3CCNCC3)sc2-c2ccnc(NC3CC3)n2)cc1 | > 120
63 | CCOc1cc(CC(=O)N[C@@H](CC(C)C)c2ccccc2N2CCCCC2)ccc1C(=O)O | 44.3
64 | Cc1cc(=O)n(-c2ccccc2)n1C | > 120
65 | Cc1cc2c(F)c(Oc3ncnn4cc(OCC(C)OC(=O)C(C)N)c(C)c34)ccc2[nH]1 (stereo not given) | 1.26
66 | COc1ccc(-c2cc(=S)ss2)cc1 | 0.73

Row | SMILES | half-life [min]
67 | CC1(C)C(=O)C(C)(C)c2cc(C(=O)Nc3ccc(C(=O)O)cc3)ccc21 | > 120
68 | C[C@@H]1O[C@@H](OC[C@H]2O[C@@H](Oc3c(-c4ccc(O)c(O)c4)oc4cc(O)cc(O)c4c3=O)[C@H](O)[C@@H](O)[C@@H]2O)[C@H](O)[C@H](O)[C@H]1O | > 120
69 | C[C@]12CC[C@H]3[C@@H](CC[C@@]45O[C@H]4C(O)=C(C#N)C[C@]35C)[C@H]1CC[C@H]2O | 85
70 | COC(=O)c1ccc2c(C(=Nc3ccc(N(C)C(=O)CN4CCN(C)CC4)cc3)c3ccccc3)c(O)[nH]c2c1 | 49.1
71 | Nc1nc2c(c(N3CCNCC3)n1)CCC1=C2[C@@H]2CCCC[C@@H]2O1 | > 120
72 | COc1cc2ncnc(Nc3cc(Br)c(O)c(Br)c3)c2cc1OC | > 120
73 | CCOP(=S)(OCC)Oc1ccc2c(C)c(Cl)c(=O)oc2c1 | 5.07
74 | CCCn1ncc(CN2CCCC(C(=O)c3cccc(OC(C)C)c3)C2)c1C (stereo not given) | 8.9
75 | O=C(O)c1cccc(CN2C(=O)/C(=C(\c3ccccc3)c3ccc(Cl)cc3)c3ccccc32)c1 | > 120
76 | COc1cc(C(=O)NC(c2ccccc2Cl)c2cc(Cl)c3cccnc3c2O)cc(OC)c1OC (stereo not given) | 25.6
77 | O=C(Nc1ccnc(NC(=O)C2CC2)c1)c1c(Cl)cccc1Cl | > 120
78 | C=CCc1ccccc1OCC(O)CNC(C)C (stereo not given) | 22
79 | Cc1c(N2C(=O)[C@@H]3[C@H](O)CCN3C2=O)ccc(C#N)c1Cl | > 120
80 | CC(CC1c2ccccc2CCc2ccccc21)CN(C)C (stereo not given) | 87.7
81 | O=C(N[C@@H](COc1ccc2[nH]c(=O)[nH]c2c1)c1ccccc1)c1cccn(Cc2ccc(F)c(F)c2)c1=O | 42.5
82 | COc1cc(N2CCN(C)CC2)ccc1Nc1nccc(-c2cn(C)c3cnccc23)n1 | > 120
83 | CC(C)(N)Cc1ccccc1Cl | > 120
84 | Cc1ccc2c(c1)C(=O)[C@]1(O)CCN(c3ccccc3)C1=N2 | 1.71
85 | O=C(O)c1ccc2c(c1)nc(Nc1cccc(Cl)c1)c1ccncc12 | 82.5

From PubChem BioAssay AID1963597 (National Center for Advancing Translational Sciences (NCATS), 2024)
